The values that follow come from US20090274738A1, “IMPLANTABLE DEVICES FOR PROMOTING REENDOTHELIALIZATION AND METHODS OF USE THEREOF” (priority 2008, published 2009).

Structures are written as SMILES. Where only a bound is given, the exact number is not on record here.

Data set [1] concerns foetal bovine aortic endothelial cell. The conditions noted are these: cited from earlier work.
Data set [2] is classed as in vivo. As for the experimental part: Tissue samples and stents were analyzed for each animal for estrogen content. The right coronary artery (RCA) and the left anterior descending artery (LAD) were opened longitudinally and cut into 6 pieces; 2 in the proximal region, 2 in the medial region and 2 in the distal region of the stented segment. One piece in each region was analyzed and the other one was kept as a backup. To evaluate the migration of E2 through the arterial wall, the left circumflex artery (LCX) was dissected to separate the adventitia from the rest of the artery and the two fractions were analyzed individually. […] After centrifugation, sera were collected for extraction and analysis by GC/MS.
Hormones Deuterium-labeled estradiol 2,4,16,16,17-D5 (17β-D5) (CDN Isotopes, Pointe Claire, Canada) and micronized estradiol (USP, Xenex labs, Coquitlam, Canada) were used respectively as internal and external controls.
Extraction of steroids—17β-estradiol extraction in pig serum. Blood samples of 8.5 mL were collected at specific time from each animal in the coronary sinus using an 8 French guiding catheter at baseline, 10 min and 1 hr after stent implantation and at sacrifice. Samples were centrifuged at 1800 rpm at 4° C. for 10 minutes. […]
Estrogen quantification data Estrogen quantification was performed by Gas Chromatography/Mass Spectroscopy (GC/MS) as described above. Diffusion of E2 from the stent was determined in tissue in direct contact with the stent (coronary tissues proximal, medial, distal (see FIG. 9)), in close proximity (reference proximal, reference distal, adventitia, peri-coronary muscle, peri-coronary white fat (see FIG. 10)) or at distal sites potentially exposed to E2 released from the stent into the blood (carotid artery, femoral artery, apex, auricle, lung, kidney and liver). To obtain the total amount of E2 in an artery, E2 content measured by GC/MS in the proximal, medial and distal portions of each stented coronary segment were added together. […] The E2 content of the total adventitia dissected from each RCA was also determined.

The subject of data set [3] is endothelial progenitor cell. The conditions noted are these: cited from earlier work.
A short description of data set [4]: Tissue uptake of estradiol administered locally with a catheter. The format is in vivo. The conditions noted are these: 10 mg administered with a catheter over a few seconds. Here is the method: Stents and hormone used for the procedures The polymer poly (ester-amide) (PEA)/estradiol (E2) stents used in Examples presented herein were prepared by MicroPort (MicroPort Medical Co, Ltd. Shanghai). Stainless steel bare metal stents were of 18 mm and 23 mm length and were spray coated by MicroPort with 300 μg or 500 μg of E2 matrixed with MediVas™ poly (ester-amide) (MVPEA.I.(Ac)) tempo polymer. […] The sizes of Cypher™ stents were; 3×18 mm, 3.5×18 mm, 3×23 mm, 3.5×23 mm (Johnson & Johnson). The sizes of Taxus™ stents were 2.25×12 mm, 3×16 mm, 3.5×16 mm, 3×24 mm, 3.5×24 mm (Boston Scientific). The estradiol (USP) used to load the polymer poly (ester-amide) (PEA)/E2 stents was bought from Xenex labs (Coquitlam, Canada) and send to Microport. The estradiol used for local delivery by catheter in the objective 2 was the water soluble form coupled with hydroxypropyl-heta-cyclodextrin (HPCD).

Consider `C[C@]12CC[C@@H]3c4ccc(O)cc4CC[C@H]3[C@@H]1CC[C@@H]2O` [estradiol, 17-β-Estradiol], for which the “concentration at which enhancement of foetal bovine aortic endothelial cell growth was lost” value in data set [1] is listed as no less than 100 nM. The “penetration of estradiol through the arterial wall” value in data set [2] (detected in adventitia, peri-coronary muscle and white fat tissues) is reported as “deep penetration”. For the same molecule, in data set [2] (first 48 hours, 500 μg E2 stent), the “mean concentration of estradiol in coronary tissue” value is given as 12.0 μg/g of tissue. The “E2 concentration in tissues at distal location from stent” value in data set [2] (in vivo) is on record as “at baseline level”. Also, the “concentration with strong negative effect on endothelial progenitor cell growth” value in data set [3] is no less than 10 µM. In data set [4], the “amount in the tissue overall” value was determined as 51 µg and the “fraction of dose up-taken by the tissue” value is 0.51%.
